Measured values as given in US20250295639A1, “METHODS FOR TREATING HEART DISEASES” (Cytokinetics, Incorporated, priority 2024, published 2025).

Tested on: patients with symptomatic oHCM
Assay: SEQUOIA-HCM: cardiopulmonary exercise testing (CPET), incl. by baseline beta blocker use
Type: in vivo, human
Source text: The primary objective of this trial was to evaluate the effect of aficamten on exercise capacity in patients with symptomatic oHCM. The indicated endpoint was a change in peak oxygen uptake (pVO2) by cardiopulmonary exercise testing (CPET) from baseline to Week 24. A further secondary objective was to evaluate the effect of aficamten on exercise capacity, as determined by change in total workload during CPET from baseline to Week 24. A further exploratory objective of this trial was to evaluate the effect of aficamten on other CPET parameters, as determined by changes from baseline to Week 24 in: (1) ventilator efficiency (VE/VCO2 slope); (2) circulatory power (VO2× systolic BP); and (3) ventilator anaerobic threshold (VAT). Cardiopulmonary Exercise Testing (CPET). All patients underwent CPET with gas-exchange analysis and the methodology will be standardized across all participating sites, as described in the CPET manual. Testing included continuous ECG monitoring by trained personnel and was performed in an area that was equipped for cardiopulmonary resuscitation. Treadmill was the preferred modality for exercise testing. […] Exercise protocols for both modalities were provided in the CPET manual. Patients had to use the same testing modality for all exercise tests during the trial. Whenever possible, CPET was administered by the same trial personnel using the same equipment and performed after the other trial procedures on that visit day (including echocardiogram, KCCQ, EQ-5D-5L, CGI, PGI-C, NYHA class, SAQ-7, vital signs, ECG, blood sampling, IP administration). Patients naïve to exercise protocols were familiarized with the technique during screening. All CPET testing was symptom-limited and patients were strongly encouraged to achieve maximal exertion and an RER ≥1.05. The reason(s) for termination of sub-maximal exercise tests were documented. A test was identified as being maximal effort if the RER is ≥1.05. The Week 24 CPET was performed at approximately the same time of day (eg, morning, mid-day, afternoon) as the baseline CPET at screening, at a consistent time after the last dose of beta blocker and IP. Whenever possible, patients performed exercise testing between three and ten hours after taking beta blocking agents. CPET End Points. We looked at whether aficamten would improve a novel measure of integrated exercise performance that combines complementary measures previously independently related to oHCM prognosis, and that incorporates both submaximal and maximal exercise capacity. A primary outcome was the change from baseline to week 24 in integrated exercise performance, defined as the 2-component Z-score of pVO2 and ventilatory efficiency (VE/VCO2 slope). Response rates for achieving clinically meaningful thresholds for change in pVO2 and correlations with clinical measures of treatment effect (health status, echocardiographic, cardiac biomarkers) were also assessed. The primary analysis was the change from baseline to Week 24 in integrated exercise performance, normalized to a composite of Z-scores for pVO2 and VE/VCO2 slope to capture physiologic responses to maximal and submaximal exercise. The Z-score was derived by reversing the directionality of VE/VCO2 slope such that increases in both Z-score components indicate benefit and equal weights were used for each Z-score component. Secondary end points included assessments for changes from baseline to week 24 in CPET-derived measures during 2 phases of exercise performance: (1) peak exercise (pVO2, peak workload, peak metabolic equivalents [METS], peak circulatory power [VO2× systolic blood pressure], exercise duration, peak respiratory exchange ratio [RER], heart rate reserve, peak heart rate, O2 pulse at peak exercise, proportionate pulse pressure); and (2) during submaximal exercise (pre-anaerobic threshold VE/VCO2 slope, VE/VCO2 slope throughout exercise, ventilatory power, ventilatory anaerobic threshold, and aerobic efficiency). Beta Blocker Co-administration. […]

[1] = Aficamten arm, change baseline to week 24
[2] = Baseline Beta Blocker Use: No, Baseline
[3] = Baseline Beta Blocker Use: No, Week 24

## CCc1nc(-c2ccc3c(c2)CC[C@H]3NC(=O)c2cnn(C)c2)no1 [aficamten, (R)—N-(5-(5-ethyl-1,2,4-oxadiazol-3-yl)-2,3-dihydro-1H-inden-1-yl)-1-methyl-1H-pyrazole-4-carboxamide]
Aficamten arm, Week 24
  Aerobic efficiency: 8.6 mL/min/watt
  Exercise duration: 12.4 min
  Heart rate reserve: 66
  Integrated 2 component Z-score metric: 0.16
  Peak circulatory power: 3550 mmHg*mL/min/kg
  Peak heart rate: 135 beats/min
  Peak respiratory exchange ratio: 1.20
  Peak workload: 134 watt
  Proportionate pulse pressure (peak): 0.51
  Proportionate pulse pressure (rest): 0.37
  Ventilatory anaerobic threshold: 958 mL
  Ventilatory efficiency pre-anaerobic threshold (VE/VCO2 slope): 27.4
  Ventilatory efficiency throughout exercise (VE/VCO2 slope): 30.9
  Ventilatory power: 5.9 mmHg
  pVO2: 20.2 mL/kg/min
[1]
  Aerobic efficiency, Abs. diff.: 0.3 mL/min/watt
  Exercise duration, Abs. diff.: 1.2 min
  Heart rate reserve, Abs. diff.: 7
  Integrated 2 component Z-score metric, Abs. diff.: +0.17±0.51
  O2 pulse at peak exercise, Abs. diff.: 0.00 mL/beat
  Peak circulatory power, Abs. diff.: 537 mmHg*mL/min/kg
  Peak heart rate, Abs. diff.: 8 beats/min
  Peak respiratory exchange ratio, Abs. diff.: 0.01
  Peak workload, Abs. diff.: 14 watt
  Proportionate pulse pressure (peak), Abs. diff.: 0.02
  Proportionate pulse pressure (rest), Abs. diff.: −0.02
  Ventilatory anaerobic threshold, Abs. diff.: 60 mL
  Ventilatory efficiency pre-anaerobic threshold (VE/VCO2 slope), Abs. diff.: −1.9
  Ventilatory efficiency throughout exercise (VE/VCO2 slope), Abs. diff.: −2.2
  Ventilatory power, Abs. diff.: 0.8 mmHg
  pVO2, Abs. diff.: 1.8 mL/kg/min
Aficamten arm, change baseline to week 24, listed as Aficamten
  Integrated 2 component Z-score metric, Abs. diff.: 0.17
Aficamten, 24 weeks
  patients with Any Deterioration (small/moderate/large) in pVO2: (26.1%)
  patients with Any Deterioration (small/moderate/large) in pVO2, number: 37
  patients with Any Improvement (small/moderate/large) in pVO2: (73.9%)
  patients with Any Improvement (small/moderate/large) in pVO2, number: 105
  patients with Large Improvement in pVO2 (≥3.0 mL/kg/min): 32%
  patients with Large Improvement in pVO2 (≥3.0 mL/kg/min), number: 46
  patients with Moderate/Large Improvement in pVO2 (≥1.5 mL/kg/min): (52.8%)
  patients with Moderate/Large Improvement in pVO2 (≥1.5 mL/kg/min), number: 75
Aficamten, 24 weeks, listed as Aficamten
  patients with Large Improvement in pVO2 (≥3.0 mL/kg/min): (32.4%)
Baseline Beta Blocker Use: No
  Change in Exercise Duration on CPET from Baseline to Week 24, LS Mean (SE): 1.2 (0.26) minutes
  Change in Exercise Duration on CPET from Baseline to Week 24, LS Mean Diff vs. Placebo (SE): 1.1 (0.38) minutes
  Change in Exercise Duration on CPET from Baseline to Week 24, Mean (SD): 1.3 (2.34) minutes
  Change in Exercise Duration on CPET from Baseline to Week 24, Median: 1.1 min
  Change in peak METs from Baseline to Week 24, LS Mean (SE): 0.62 (0.113) METs
  Change in peak METs from Baseline to Week 24, LS Mean Diff vs. Placebo (SE): 0.55 (0.162) METs
  Change in peak METs from Baseline to Week 24, Mean (SD): 0.65 (1.029) METs
  Change in peak METs from Baseline to Week 24, Median: 0.47 METs
[2]
  Exercise Duration on CPET, Baseline, Mean (SD): 11.0 (3.52) minutes
  Exercise Duration on CPET, Baseline, Median: 10.3 min
  peak METs (pVO2/3.5 (mL/kg/min)) on CPET, Baseline, Mean (SD): 5.27 (1.314) METs
  peak METs (pVO2/3.5 (mL/kg/min)) on CPET, Baseline, Median: 5.11 METs
[3]
  Exercise Duration on CPET, Week 24, Mean (SD): 12.2 (4.39) minutes
  Exercise Duration on CPET, Week 24, Median: 11.3 min
  peak METs (pVO2/3.5 (mL/kg/min)) on CPET, Week 24, Mean (SD): 5.89 (1.481) METs
